In one series the target is T1, S1P4 (Homo sapiens, UniProt O95977).
T1 construct: expressed in transfected cells; membranes
T1 sequence (O95977 1-384): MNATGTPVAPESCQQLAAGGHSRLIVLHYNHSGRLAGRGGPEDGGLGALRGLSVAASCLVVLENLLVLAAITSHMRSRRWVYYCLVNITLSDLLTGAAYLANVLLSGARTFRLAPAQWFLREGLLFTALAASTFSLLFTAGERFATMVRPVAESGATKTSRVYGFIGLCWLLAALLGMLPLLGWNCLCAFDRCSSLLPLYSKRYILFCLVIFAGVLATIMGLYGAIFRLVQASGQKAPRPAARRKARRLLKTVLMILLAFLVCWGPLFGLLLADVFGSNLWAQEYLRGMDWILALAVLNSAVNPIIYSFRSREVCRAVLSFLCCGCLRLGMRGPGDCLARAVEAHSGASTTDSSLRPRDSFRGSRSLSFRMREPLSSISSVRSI
Briefly: Radioligand binding assay, 33P-S1P labelled S1P4 receptor. To be noted: 33P-S1P labelled receptors. The method, then:
(§1) HEK293 or CHO cells expressing S1P1-5, are prepared in ˜0.5×10^5 cells/well. Cells are plated into each well of a 6-well plate in 2 ml of growth media (OptiMEM, Invitrogen). Two micrograms receptor plasmid DNA is mixed in 200 ul OptiMEM, and combined with 6 ul Lipofectamine (2000-9, Invitrogen). The mixture is added drop wise to 2 ml of growth media covering the cells in each well. The cells are allowed to transfect for 8-18 hours at room temperature. The OptiMEM transfection medium is replaced with 2 ml fresh serum-containing medium an incubated for 48 hours. The cells are diluted 1:10 in selection media (OptiMEM. Invitrogen) containing 0.8 mg/ml G418 in 10 cm dishes. Colonies are allowed to form (˜1-2 weeks), and 12 colonies from each dish are independently harvested with cloning disks and placed into 24-well plates.
(§2) Cell membranes from CHO-S1P1-5 or HEK-S1P1-5 transfected cells are prepared by homogenizing the cells in an ice cold solution containing 25 mM Tris, 5 mM EDTA, 5 mM EGTA, and Complete Protease Inhibitor Cocktail, EDTA-Free (Roche #1 873 580). Cells are lysed by dounce homogenization and centrifugation at 20,000×g for 20 minutes at 4° C. Membrane pellets are resuspended in the same buffer and centrifuged again at 20,000×g for 20 minutes at 4° C. Final membrane pellet is resuspended in 20 mM HEPES, pH 7.5, 5 mM MgCl2, 1 mM CaCl2. Protein concentration is determined using the Micro BCA protein assay (Pierce #23235).
(§3) Serial dilutions of test compounds in DMSO are prepared in 96 well polypropylene plates. Using the FX robot 1:50 intermediate dilutions are made to assay buffer (20 mM HEPES, pH 7.5, 5 mM MgCl2, 1 mM CaCl2, 4 mg/ml fatty-acid free BSA). This intermediate is further diluted 1:10 to the final assay reaction. Final DMSO concentration in the reaction is 0.2%. Final reaction contains 50 pM ^33P-S1P (Perkin Elmer; Special Order), and 2.5 μg of cell membranes. The reaction is incubated at room temperature for 30 minutes and stopped by filtration through GF/B UniFilter Plates (Perkin Elmer #6005177) and washed four times with wash buffer containing 50 mM Tris pH 7.4, 0.025% Tween-20. The filter plates are dried for approximately 20 minutes in an oven at 50° C. Back seals are adhered to the filter plates and 40 μl of Microscint-20 scintillation fluid is added (Perkin Elmer #6013621). The filter plates are sealed, shaken for 30 minutes at room temperature, and counted on a Top Count (PerkinElmer).

The target in another series is T2, S1P1 (Homo sapiens, UniProt P21453).
T2 construct: expressed in transfected cells; membranes
Briefly: Radioligand binding assay, 33P-S1P labelled S1P1 receptor. Particulars: 33P-S1P labelled receptors. The method, then:
as §1, §2, §3

Series [1] in a line: Terminal half life and clearance from blood samples. Format: in vivo, CD1 mice. Particulars: CD1, mouse, oral; for clearance: read-out: Cl (ml/min/kg) (clearance). An excerpt: Agonium of S1P1 results in S1P1 internalization, inhibiting lymphocyte egress into circulation, and is clinically presented as lymphopenia (Chiba, Pharmacology & Therapeutics 2005; 108,308-319, 2005). The following protocol may be used to assess the potential induction of lymphopenia for the test compounds when administered as a single oral dose to CD1 mice.
A suspension of 5% Gelucire may be used as the vehicle to prepare dosing formulations and to dose vehicle control animals. Test compound is weighed and transferred to a 15 mL Falcon tube or equivalent to make stock formulations. The appropriate amount of 5% Gelucire vehicle is then added to the tube. The resulting formulation is sonicated with a probe sonicator until no obvious particulate matter is apparent. About 500 mL Gelucire (Gattefosse, St-Priest, Cedex, France) is melted in a 1000 W microwave oven set for 3 minutes on high power. The appropriate amount of Gelucire is added to deionized water to form 5% (vol/vol) aqueous Gelucire.
Blood samples (˜0.6-0.8 mL) may be collected via intracardiac puncture at appropriate time points. The mice are anesthetized by carbon dioxide and euthanized via exanguination by intracardiac puncture. Blood samples are obtained and placed in tubes containing EDTA. Lymphocytes (L, %) count is measured with Abbott Cell-Dyn 3700 automated analyzer.
Samples of blood were taken to determine terminal half life (T½) and clearance of the compounds, using well accepted methods for such assays.

For another series, the target named is T3, S1P5 (Homo sapiens, UniProt Q9H228).
T3 construct: expressed in transfected cells; membranes
Briefly: Radioligand binding assay, 33P-S1P labelled S1P5 receptor. Particulars: 33P-S1P labelled receptors. The protocol:
as §1, §2
(§4) Serial dilutions of test compounds in DMSO are prepared in 96 well polypropylene plates. Using the FX robot 1:50 intermediate dilutions are made to assay buffer (20 mM HEPES, pH 7.5, 5 mM MgCl2, 1 mM CaCl2, 4 mg/ml fatty-acid free BSA). This intermediate is further diluted 1:10 to the final assay reaction. Final DMSO concentration in the reaction is 0.2%. […] The filter plates are sealed, shaken for 30 minutes at room temperature, and counted on a Top Count (PerkinElmer).

A further series concerns the target T4, S1P2 (Homo sapiens, UniProt O95136).
T4 construct: expressed in transfected cells; membranes
Briefly: Radioligand binding assay, 33P-S1P labelled S1P2 receptor. To be noted: 33P-S1P labelled receptors. The protocol:
as §1, §2, §4

For another series, the target named is T5, S1P3 (Homo sapiens, UniProt Q99500).
T5 construct: expressed in transfected cells; membranes
The series can be described thus: Radioligand binding assay, 33P-S1P labelled S1P3 receptor. To be noted: 33P-S1P labelled receptors. The method, then:
as §1, §2, §3

pIC50, pKi: −log10 of the molar value. Counter-ions that a name gives are not always drawn. Some results are limits rather than exact numbers.

In general, pIC50 refers to the negative decadic logarithm of the IC50, by convention in mol/L. The low end stands for a large IC50, the high end for a small IC50. Broadly, the pKi is the Ki on a negative log10 scale, so that one unit is a factor of ten. A high value points to a low Ki. As a reminder, the half-life is the time in which the quantity being followed falls by half. Low values mean rapid decline, high ones slow decline.

T4 sequence (O95136 whole entry): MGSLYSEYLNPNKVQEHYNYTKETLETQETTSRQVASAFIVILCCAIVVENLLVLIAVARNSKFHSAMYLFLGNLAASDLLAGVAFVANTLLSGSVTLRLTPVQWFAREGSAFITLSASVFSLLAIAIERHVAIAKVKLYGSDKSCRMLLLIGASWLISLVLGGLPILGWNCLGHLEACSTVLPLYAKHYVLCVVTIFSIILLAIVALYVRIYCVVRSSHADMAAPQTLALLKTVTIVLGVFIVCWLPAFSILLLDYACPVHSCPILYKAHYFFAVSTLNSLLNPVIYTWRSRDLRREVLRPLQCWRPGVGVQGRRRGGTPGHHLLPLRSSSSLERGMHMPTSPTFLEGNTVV
T3 sequence (Q9H228 whole entry): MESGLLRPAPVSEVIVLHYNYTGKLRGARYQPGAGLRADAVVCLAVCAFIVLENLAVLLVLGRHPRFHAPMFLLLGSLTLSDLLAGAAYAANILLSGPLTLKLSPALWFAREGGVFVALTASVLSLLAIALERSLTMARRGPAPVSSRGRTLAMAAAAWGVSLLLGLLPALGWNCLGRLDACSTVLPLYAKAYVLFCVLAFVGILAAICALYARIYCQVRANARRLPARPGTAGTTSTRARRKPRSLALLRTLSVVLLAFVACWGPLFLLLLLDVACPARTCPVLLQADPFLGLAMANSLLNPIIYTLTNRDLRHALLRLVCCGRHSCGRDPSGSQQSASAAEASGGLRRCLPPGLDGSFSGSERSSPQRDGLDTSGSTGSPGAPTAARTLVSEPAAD
T2 sequence (P21453 whole entry): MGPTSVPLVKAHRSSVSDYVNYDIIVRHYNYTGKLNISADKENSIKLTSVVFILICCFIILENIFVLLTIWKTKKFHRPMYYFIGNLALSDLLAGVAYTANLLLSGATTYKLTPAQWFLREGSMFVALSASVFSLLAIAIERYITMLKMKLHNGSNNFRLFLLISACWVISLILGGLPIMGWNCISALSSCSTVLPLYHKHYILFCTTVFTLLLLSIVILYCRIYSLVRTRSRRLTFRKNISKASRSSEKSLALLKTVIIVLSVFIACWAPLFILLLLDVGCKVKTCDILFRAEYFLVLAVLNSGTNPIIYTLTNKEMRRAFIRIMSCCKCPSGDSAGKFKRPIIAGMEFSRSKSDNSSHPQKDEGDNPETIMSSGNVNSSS
T5 sequence (Q99500 whole entry): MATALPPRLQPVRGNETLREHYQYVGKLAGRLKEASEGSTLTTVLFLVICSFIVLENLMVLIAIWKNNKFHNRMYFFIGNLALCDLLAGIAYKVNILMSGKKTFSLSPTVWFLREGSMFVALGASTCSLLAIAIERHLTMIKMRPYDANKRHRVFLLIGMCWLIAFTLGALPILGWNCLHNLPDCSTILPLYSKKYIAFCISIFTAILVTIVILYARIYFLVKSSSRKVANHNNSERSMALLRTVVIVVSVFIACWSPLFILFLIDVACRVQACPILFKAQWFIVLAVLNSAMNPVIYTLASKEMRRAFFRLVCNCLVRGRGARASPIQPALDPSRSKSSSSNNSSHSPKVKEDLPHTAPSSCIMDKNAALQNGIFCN

Turning to `CC(C)Cc1ccc(-c2nc(-c3ccc([C@@H](C)N[C@H]4C[C@@H](C(=O)O)C4)cc3)no2)cc1` [cis-3-{[(1R)-1-{4-[5-(4-Isobutylphenyl)-1,2,4-oxadiazol-3-yl]phenyl}ethyl]amino}cyclobutanecarboxylic acid], the negative logarithm of the IC50 (pIC50) at S1P4 is 7.46; at S1P5 it was 8.54; on S1P2, below 6.00; at S1P3, below 6.00. For the same molecule, at S1P1, the pKi is 9.54. This molecule had a half-life in series [1] of 5.2 h. For the same molecule, the clearance in series [1] amounted to 6 mL/min/kg.

Take `CCCCCCCCCCCCC/C=C/[C@@H](O)[C@@H](N)COP(=O)(O)O` [Example S1P, sphingosine-1-phosphate, reference compound]: the pIC50 is 7.82 on S1P4 and 8.15 on S1P3. This molecule showed a negative-log Ki (pKi) on S1P1 of 9.80.

In the case of `CC(C)Cc1ccc(-c2nc(-c3ccc([C@H](C)N[C@H]4C[C@@H](C(=O)O)C4)cc3)no2)cc1` [cis-3-{[(1S)-1-{4-[5-(4-isobutylphenyl)-1,2,4-oxadiazol-3-yl]phenyl}ethyl]amino}cyclobutanecarboxylic acid, hydrochloride salt], the pIC50 on S1P4 is 6.48; on S1P5 it was 7.96; on S1P2, below 6.00; on S1P3, below 6.00. In addition, at S1P1, the pKi is 8.57. The half-life in series [1] is 6.7 h. Besides, in series [1], the clearance was 5.11 mL/min/kg.

Turning to `CC(C)Cc1ccc(-c2nc(-c3ccc([C@@H](C)N[C@H]4C[C@H](C(=O)O)C4)cc3)no2)cc1` [trans-3-{[(1R)-1-{-4-[5-(4-Isobutylphenyl)-1-1,2,4-oxadiazol-3-yl]phenyl}ethyl]amino}cyclobutanecarboxylic acid], the negative-log IC50 (pIC50) at S1P4 is 6.36; on S1P5, 7.82; at S1P2, below 6.00; on S1P3, below 6.00. Also, the pKi at S1P1 is 8.34.
